The MIC is the lowest concentration that inhibits growth of the organism. One may read the IC50 as the point on the concentration scale where inhibition reaches its midpoint. The Ki is the equilibrium dissociation constant of an inhibitor or competing ligand from its target.

The source of these data is publication PMC7508948, “Identification and validation of novel and more effective choline kinase inhibitors against Streptococcus pneumoniae” (Scientific Reports, 2020).

Each structure is given as a SMILES string. Like-named read-outs stand apart in the source and are kept apart here.

The subject of assay [1] is S. pneumoniae R6 strain. On the set-up: method as in PMID 28946671. Particulars: previously reported; cited from earlier work.
The test system of assay [2] is S. pneumoniae. Briefly: Interaction with vancomycin-provoked cell lysis. Format: cell-based, Streptococcus pneumoniae. The settings on record: O.D. changes with vancomycin in presence of inhibitor. The protocol:
(§1) Figure 3 Effect of drugs on the autolytic process. (A) Percent changes in O.D. were measured in cultures of S. pneumoniae exposed to various concentrations of drugs expressed as multiples of MIC. Percent changes were calculated by comparing initial and final O.D. values. (B) O.D. changes in cells treated with vancomycin (VAN) in the presence and absence of HC-3 (HC3), MN58b (MN), and RSM-932A (RSM). (C) Detergent induced lysis of cells grown to saturation in the presence of 0.5 MIC MN58b and RSM-932A. (D) Phosphate induced lysis of cells grown to saturation in the presence of 0.5 MIC MN58b and RSM-932A.
Autolysis is a process of cell lysis and death that is mediated by LTAs via choline binding autolysins[19] such as LytA. […] In light of the non-specificity observed with HC-3 (being able to interfere with both ChoKs and the autolytic process), it seemed logical to check the specificity of MN58b and RSM-932A for sChoK inhibition. The interaction of MN58b, RSM-932A, and HC-3 with bacteriolytic antibiotic vancomycin was determined (Fig. 3B). […] The non-specificity of HC-3 may help to explain its weakness against sChoK.

Assay [3] concerns the target T1, sChoK (Streptococcus pneumoniae, UniProt Q8DPI4). Details: method as in doi:10.30721/fsab2018.v1.i2.40. Particulars: previously reported; read-out: IC50 against sChoK; cited from earlier work.
In assay [4] the test system is S. pneumoniae. The assay is described as follows: Percent O.D. changes of cultures exposed to multiples of MIC (bacteriostatic/bacteriolytic). Format: cell-based, Streptococcus pneumoniae. The settings on record: cultures grown to O.D. 0.500, concentrations as multiples of MIC. The protocol: as §1
For the next assay, the system named is S. pneumoniae R6 cells. Briefly: Western blot detection of lipoteichoic acid (LTA). Format: cell-based, Streptococcus pneumoniae. The settings on record: cells grown to saturation with 0.5 MIC. On the procedure:
R6 cells were cultured to saturation in either BHI-cat alone or BHI-cat 0.5 MIC of MN58b or RSM-932A. One milliliter (1 mL) of cell samples was centrifuged at 3,000g, sonicated 3 × 2 min on ices. Western blots were performed as described[3] while total protein on the membrane was measured by fluorescence according to Quickstain instructions.
In order to quantify LTA production, western blots were performed on extracts of cells grown to saturation in the presence of 0.5 MIC MN58b or RSM-932A. LTA band patterns clearly differed between treatments. […] It is important to note that each size band in an LTA western blot differs from the lower one by a single LTA residue (Fig. 4A)[19].
On the technique in general: A western blot detects proteins with antibodies after separation by electrophoresis.

The target in assay [5] is T1, sChoK. Briefly: Colorimetric choline kinase assay with S. pneumoniae extracts. Format: biochemical. Particulars: choline consumption. The text has this:
(§2) When using cell extracts such as BL21 (DE3) extracts containing sChoK or S. pneumoniae extracts as the enzyme source, a colorimetric method was used to quantify Cho consumption and PCho production as described previously.
In light of the inconsistent results between sChoK inhibition by MN58b and RSM-932A which are both known choline kinase inhibitors, we repeated the colorimetric experiments using S. pneumoniae extracts as the source of sChoK, The goal of the experiment was to determine whether or not differences in sChoK inhibition could be detected in a more native environment than that provided by extracts of E. coli overexpressing sChoK or purified sChoK. […] This agonism was confirmed by mass spectrometry (data not shown) and was also found to be ATP dependent, thereby supporting the inference that RSM-932A was still affecting sChoK activity, although in the opposite direction.

Assay [6] deals with S. pneumoniae R6 strain. Briefly: Minimum inhibitory concentration (MIC) and minimum lethal concentration (MLC) in culture. Format: cell-based, Streptococcus pneumoniae. Particulars: for MLC: S. pneumoniae R6, 99.9% of cells killed by CFU counts; for MIC: Streptococcus pneumoniae, R6STRAIN, S. pneumoniae R6, BHI-CAT, O.D.610 of 0 at end of culture. The protocol: Seven μL of a glycerol stock of the S. pneumoniae R6 strain was used to inoculate 7 mL of Brain Heart Infusion broth (BHI, Accumedia, Sydney, Australia) supplemented with 5 units/mL catalase (BHI-CAT). This starter culture was incubated at 37 °C in a water bath until an optical density at 610 nm (OD610) […]. Forty μL of this starter culture was used to inoculate 40 mL of BHI-CAT media with or without varying concentrations of inhibitor.
MIC was determined as the concentration inhibitor at which an O.D.610 of 0 was measured at the end of culture time. MLC was defined as the concentration at which 99.9% of cells were killed at the end of culturing time as determined by CFU counts using Meuller–Hinton plates.

The test system of assay [7] is S. pneumoniae. The assay is described as follows: Detergent and phosphate induced lysis of cells grown with 0.5 MIC inhibitor. Format: cell-based, Streptococcus pneumoniae. The settings on record: cells grown in presence of 0.5 MIC. The protocol:
as §1
Given the observation that MN58b and RSM-932A were sChoK inhibitors, our expectation was that cells treated with these inhibitors would show a decrease in overall LTA content because a decrease in phosphocholine availability would reduce the overall production of LTA residues and, by extension, LTA molecules. A reduction in LTA content, in turn, should help desensitize cells to autolytic induction. Although autolysin proteins would be released, they would not be able to dock on the cell surface because the autolysin choline binding domains would have fewer choline containing LTA molecules with which to interact. Both LTA reduction and cell […] had previously been observed with HC-3[17].

Assay [8] concerns the target T1, sChoK. The assay is described as follows: IC50 by colorimetric method with BL21 (DE3) extracts expressing recombinant sChoK. Format: biochemical. On the procedure: as §2
The IC50s of each drug against sChoK were measured using two methods: the indirect ldh/pk method that relied on recombinant sChoK and which indirectly measured consumption of ATP[14] and a previously reported colorimetric method that relied on BL21 (DE3) extracts expressing recombinant sChoK, which directly measured the consumption of choline and the production of phosphocholine. Inhibitors were similarly effective in a complex cell extract and in a simplified system relying on a purified enzyme. […] RSM-932A was stronger that MN58b by 1–2 orders of magnitude.

The target of assay [9] is T1, sChoK. Briefly: IC50 by LDH/PK with purified recombinant sChoK. Format: biochemical. The protocol: Purified sChoK was used in these assays. Steady-state enzymatic assays were monitored with the pyruvate kinase/lactate dehydrogenase (PK/LDH) reaction. The steady-state rate of ADP formation was calculated using an extinction coefficient of 6,200 M^−1 cm^−1 to determine linear reductions in NADH concentrations that were observed by absorbance at 340 nm. Measurements were carried out at 25 °C in a UV-Star 96-well plate (Greiner) placed in a Synergy HT microplate reader (Biotek). Each well contained 200 µL of a solution containing 22 nM sChoK enzyme, 100 mM Tris pH 8, 10 mM MgCl2, 150 mM NaCl, 150 mM KCl, […], 0.66 mM phosphoenolpyruvate, 20 units of LDH, and 10 units of PK, choline. ATP. […] The kcat was calculated by dividing the Vmax by the enzyme concentration.
Using the conditions described above, the concentration of choline was set to the Km and increasing amounts of inhibitor were tested. Percent inhibition was determined. The IC50 was determined as the concentration of inhibitor required to reach 50% inhibition.

Assay [10] has as its target T1, sChoK. The assay is described as follows: Substrate-inhibitor competition (competitivity) by LDH/PK. Format: biochemical. The protocol: The mechanism of action of the inhibitors with respect to each substrate was determined using a previously described method[13],[14]. Briefly, using the IC50 of each inhibitor determined at the Km of choline, the concentration of one substrate was kept constant, and initial velocities were measured while varying the second substrate in the presence and absence of the inhibitor. The percentage of inhibition (%I) was determined by dividing each initial velocity in the presence of the inhibitor with its corresponding initial velocity in the absence of compound. %I was plotted against concentration and fitted using a two-parameter-fit nonlinear regression algorithm of GnuPlot v 4.3 into Eq. (2).2 %I=100×(([I]/Ki+[S][I]/αKsKi/(1+[S]/Ks+[I]/Ki+[S][I]/αKsKi)) where [S] is the concentration of the varied substrate, [I] is the concentration of inhibitor, Ks is the dissociation constant of the substrate (assumed to be equal to the Km), Ki is the dissociation constant of the inhibitor, and α is a numerical constant that measures the effect the substrate has on the binding of the inhibitor and vice versa.
A mechanistic analysis was performed for each inhibitor by performing steady-state enzymatic reactions with sChoK in which one substrate was varied while the other substrate was fixed both in assays with and without inhibitor fixed at a concentration equal to its IC50. sChoK inhibition was calculated as a percentage (%I) calculated by dividing the initial velocity at each substrate concentration with inhibitor by counterpart initial velocities in the absence of inhibitor. %I values were plotted against substrate concentration. The resulting data was fitting to an Eq. (2) and Ki and α values calculated.

T1 sequence (Q8DPI4 entry or part of it): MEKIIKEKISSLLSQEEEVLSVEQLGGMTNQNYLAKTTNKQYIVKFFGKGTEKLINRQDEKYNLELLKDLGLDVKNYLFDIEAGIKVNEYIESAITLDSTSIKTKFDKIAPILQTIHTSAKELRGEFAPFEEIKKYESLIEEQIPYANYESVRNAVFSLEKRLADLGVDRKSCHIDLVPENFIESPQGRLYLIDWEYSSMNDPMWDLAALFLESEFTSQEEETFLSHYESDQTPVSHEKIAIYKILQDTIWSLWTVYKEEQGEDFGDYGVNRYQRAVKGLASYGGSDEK

Regarding `C[N+]1(C)CCOC(O)(c2ccc(-c3ccc(C4(O)C[N+](C)(C)CCO4)cc3)cc2)C1` (centres unmarked) [HC-3, Hemicholinium-3], the MIC in the assay on S. pneumoniae R6 strain [1] was 5,400 µM. The “Effect on cell lysis provoked by vancomycin” value (“Effect on cell lysis provoked” below) with S. pneumoniae [2] is “prevented cell lysis provoked by vancomycin”. Also, the IC50 at sChoK [3] is 2700 µM.

For `CN(C)c1cc[n+](Cc2ccc(CCCCc3ccc(C[n+]4ccc(N(C)C)cc4)cc3)cc2)cc1` [MN58b, 1,4-[4–4′-Bis-{[4-(dimethylamine)pyridinium-1-yl]methyl}diphenyl]butane dibromide], in the assay on S. pneumoniae [4], the “Bacteriostatic or bacteriolytic action” value is listed as “bacteriostatic up to a concentration of 50 × MIC after which they become bacteriolytic”. In the assay on S. pneumoniae R6 cells, the LTA size pattern entry is listed as “marked increase in the smaller sizes of LTA” and the “Total LTA production” value is reported as “marked increase in total LTA production”. In addition, the “Effect on choline kinase activity in S. pneumoniae extracts” value at sChoK [5] is listed as “continued to function as an inhibitor of choline kinase activity”. In the assay on S. pneumoniae R6 strain [6], the MLC turned out to be 20 µM and 10 µM was the least that counted as inhibitory (MIC). In addition, the “Sensitivity of cells to induced autolysis” value in the assay with S. pneumoniae [7] is on record as “primed the cells to be autolyzed”. Moreover, the “Effect on cell lysis provoked” value with S. pneumoniae [2] is recorded as “minimal to no effect”. The IC50 at sChoK [8] came out at 225 µM. Further, on sChoK [9], the IC50 worked out at 645 µM. In addition, on sChoK [10] ((A) inhibitor vs ATP), the Kminh/Kmfree stood at 3.48, the “Mechanism of Inhibition” value was “Mixed”, the Vmaxinh/Vmaxfree was 0.76 and the α turned out to be 6.0 ± 2.2. In addition, at sChoK [10] ((A) inhibitor vs ATP), the Ki came to 182 ± 28.1 µM. At sChoK [10] ((B) inhibitor vs choline), the Kminh/Kmfree was found to be 2.3, the “Mechanism of Inhibition” value was “Mixed”, the Vmaxinh/Vmaxfree worked out at 0.69 and the Ki was 124 ± 19.2 µM.

Turning to `CN(c1ccc(Cl)cc1)c1cc[n+](Cc2ccc(-c3ccc(C[n+]4ccc(N(C)c5ccc(Cl)cc5)c5ccccc54)cc3)cc2)c2ccccc12.[Br-].[Br-]` [RSM-932A, 1,1′-([1,1′-biphenyl]-4,4′-diylbis(methylene))bis(4-((4-chlorophenyl)(methyl)amino)quinolin-1-ium) bromide], the “Bacteriostatic or bacteriolytic action” value with S. pneumoniae [4] is listed as “bacteriostatic up to a concentration of 50 × MIC after which they become bacteriolytic”. Moreover, in the assay with S. pneumoniae R6 cells, the LTA size pattern entry is reported as “larger size polymers were favored” and the “Total LTA production” value is reported as “overall production remained unchanged”. Also, the “Effect on choline kinase activity in S. pneumoniae extracts” value at sChoK [5] is reported as “somewhat inhibitory at lower concentrations, it functioned as an agonist of choline kinase activity at higher concentrations”. In the assay on S. pneumoniae R6 strain [6], the MLC was 1.6 µM and the minimum inhibitory concentration (MIC) worked out at 0.4 µM. Moreover, in the assay on S. pneumoniae [7], the “Sensitivity of cells to induced autolysis” value is given as “equally sensitive to autolysis as untreated controls”. Further, the “Effect on cell lysis provoked” value in the assay with S. pneumoniae [2] is on record as “minimal to no effect”. For the same compound, the half-inhibitory concentration (IC50) at sChoK [8] was determined as 0.5 µM. Also, the IC50 at sChoK [9] was 22 µM. Also, at sChoK [10] ((A) inhibitor vs ATP), the Kminh/Kmfree came to 0.92, the “Mechanism of Inhibition” value is reported as “Noncompetitive”, the Vmaxinh/Vmaxfree was 0.61 and the α worked out at 1.1 ± 0.17. The inhibition constant Ki at sChoK [10] ((A) inhibitor vs ATP) amounted to 35.8 ± 3.2 µM. In addition, on sChoK [10] ((B) inhibitor vs choline), the “Mechanism of Inhibition” value is recorded as “Mixed”, the Vmaxinh/Vmaxfree worked out at 0.76, the α is 8.1 ± 1.8 and the Ki was determined as 10.6 ± 0.9 µM.
